Values joined by “and” are separate entries in the source; they are usually repeats but may differ in a detail not shown here. Equal entries are not always repeated.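 1) Cells in 96-well plates. 2) Compound, 48 h, 5 concentrations. 3) Linear interpolation between surrounding doses. 4) Unreached endpoint = highest concentration. Abbreviation: GI50, concentration required for 50% inhibition of growth. TGI marks complete inhibition of growth.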 Where a SMILES comes first, the peptide text is derived from it. [ ]: non-standard residue; d: D form. Aoe = N[C@@H](CCCCCC(=O)[C@@H]1CO1)C(=O)O
Assays:
Test in all cases: inhibition of tumour cell growth, NCI panel, 48 h
KM12 colon = test system: KM12 colon
HS 578T breast = test system: HS 578T breast
SR leukemia = test system: SR leukemia
NCI-H23 lung = test system: NCI-H23 lung
TK-10 renal = test system: TK-10 renal
HCC-2998 colon = test system: HCC-2998 colon
IGROV1 ovarian = test system: IGROV1 ovarian
MDA-MB-435 = test system: MDA-MB-435
RPMI-8226 leukemia = test system: RPMI-8226 leukemia
SK-MEL-5 melanoma = test system: SK-MEL-5 melanoma
ACHN renal = test system: ACHN renal
NCI-H522 lung = test system: NCI-H522 lung
M14 melanoma = test system: M14 melanoma
BT-549 breast = test system: BT-549 breast
CCRF-CEM leukemia = test system: CCRF-CEM leukemia
HOP-62 NSCLC = test system: HOP-62 NSCLC
U251 CNS = test system: U251 CNS
SK-OV-3 ovarian = test system: SK-OV-3 ovarian
COLO 205 colon = test system: COLO 205 colon
SNB-19 CNS = test system: SNB-19 CNS
UACC-62 melanoma = test system: UACC-62 melanoma
SK-MEL-28 melanoma = test system: SK-MEL-28 melanoma
MCF7 breast = test system: MCF7 breast
EKVX NSCLC = test system: EKVX NSCLC
OVCAR-4 ovarian = test system: OVCAR-4 ovarian
786-0 renal = test system: 786-0 renal
OVCAR-8 ovarian = test system: OVCAR-8 ovarian
HL-60(TB) leukemia = test system: HL-60(TB) leukemia
NCI/ADR-RES ovarian = test system: NCI/ADR-RES ovarian
HOP-92 NSCLC = test system: HOP-92 NSCLC
SF-539 CNS = test system: SF-539 CNS
UACC-257 melanoma = test system: UACC-257 melanoma
SNB-75 CNS = test system: SNB-75 CNS
PC-3 prostate = test system: PC-3 prostate
A549 NSCLC = test system: A549 NSCLC
HCT-15 colon = test system: HCT-15 colon
SN12C renal = test system: SN12C renal
MDA-MB-231 breast = test system: MDA-MB-231 breast
MALME-3M melanoma = test system: MALME-3M melanoma
SW-620 colon = test system: SW-620 colon
MOLT-4 leukemia = test system: MOLT-4 leukemia
HT29 colon = test system: HT29 colon
OVCAR-5 ovarian = test system: OVCAR-5 ovarian
NCI-H226 lung = test system: NCI-H226 lung

CC(=O)Nc1ccc2[nH]c(-c3cccc(Cl)c3)cc(=O)c2c1
TGI (KM12 colon): > 100 µM
TGI (HS 578T breast): > 100 µM
TGI (SR leukemia): > 100 µM
TGI (NCI-H23 lung): > 100 µM
TGI (TK-10 renal): > 100 µM
TGI (HCC-2998 colon): 63.5 µM
TGI (IGROV1 ovarian): > 100 µM
TGI (MDA-MB-435): 6.93 µM
TGI (RPMI-8226 leukemia): > 100 µM
TGI (SK-MEL-5 melanoma): > 100 µM
TGI (ACHN renal): > 100 µM
TGI (NCI-H522 lung): > 100 µM
TGI (M14 melanoma): > 100 µM
TGI (BT-549 breast): > 100 µM
TGI (CCRF-CEM leukemia): > 100 µM
TGI (HOP-62 NSCLC): > 100 µM
TGI (U251 CNS): 23.8 µM
TGI (SK-OV-3 ovarian): 68.5 µM
TGI (COLO 205 colon): 39.9 µM
TGI (SNB-19 CNS): > 100 µM
TGI (UACC-62 melanoma): 84.4 µM
TGI (SK-MEL-28 melanoma): > 100 µM
TGI (MCF7 breast): > 100 µM
TGI (EKVX NSCLC): > 100 µM
GI50 (OVCAR-4 ovarian): > 100 µM
TGI (OVCAR-4 ovarian): > 100 µM
TGI (786-0 renal): > 100 µM
TGI (OVCAR-8 ovarian): > 100 µM
TGI (HL-60(TB) leukemia): > 100 µM
TGI (NCI/ADR-RES ovarian): > 100 µM
TGI (HOP-92 NSCLC): > 100 µM
TGI (SF-539 CNS): 30 µM
TGI (UACC-257 melanoma): > 100 µM
TGI (SNB-75 CNS): > 100 µM
TGI (PC-3 prostate): > 100 µM
TGI (A549 NSCLC): > 100 µM
TGI (HCT-15 colon): > 100 µM
TGI (SN12C renal): > 100 µM
TGI (MDA-MB-231 breast): > 100 µM
TGI (MALME-3M melanoma): > 100 µM
TGI (SW-620 colon): > 100 µM
TGI (MOLT-4 leukemia): > 100 µM
TGI (HT29 colon): 33.7 µM
TGI (OVCAR-5 ovarian): > 100 µM

O=C1N[C@@H](Cc2ccccc2)C(=O)N2CCC[C@@H]2C(=O)N[C@@H](CCCCCC(=O)[C@@H]2CO2)C(=O)N[C@H]1Cc1ccccc1 (cyclo(FF[dP][Aoe]))
GI50 (NCI-H23 lung): 0.00426 µM and 0.00689 µM
TGI (NCI-H23 lung): 2.12 µM and 0.458 µM
TGI (HOP-92 NSCLC): 1.6 µM
GI50 (UACC-257 melanoma): 0.000732 µM and 0.00214 µM
TGI (NCI-H226 lung): > 2.13 µM
